Several values for one entry are separate records, joined by “and”; a condition that tells them apart may be missing. Equal entries are not always repeated.
Tests used:
Assay type in all cases: cell-based, human
[1] = tested on: ISG expression in healthy control PBMCs; experiment: Healthy PBMC type I IFN signaling gene expression array, IFNα2-stimulated; conditions: IFNα2 20 ng/mL, 2 µM, 16 h
Description: NEM). Cell lysates were clarified by centrifugation at 15,000 g for 10 minutes at 4 °C. Clarified lysates were pre-cleared with control uncoupled agarose beads (UM400, LifeSensors) for 30 minutes on a rotator at 4 °C followed by centrifugation at 5,000 g for 2 minutes. Equal amount of pre-cleared lysates from individual samples were incubated with 20 µL Agarose-TUBE beads (pre-equilibrated with 1X Tris-buffered saline (TBS)) overnight on a rotator at 4 °C. Beads were collected by centrifugation at 5,000 g for 2 minutes at RT followed by four stringent washes with 1X TBST (TBS, 0.1% Tween-20). TUBE-pulldown proteins were eluted by boiling Agarose-TUBE beads in 2X LDS sample buffer supplemented with […] DTT for 15 minutes. Eluted proteins were resolved on NuPAGE™ 4–12% Bis–Tris gel followed by Western blotting using anti-IFNAR1 antibody (ab124764, Abcam).
(§1) PBMCs in vitro experiments
(§2) Peripheral blood mononuclear cells (PBMCs) from healthy and SSc donors were separated using density gradient method (Leucosep™, Greiner Bio-One International) from EDTA anticoagulated peripheral blood; isolated cells were washed twice by PBS. PBMCs were then incubated in RPMI1640 […]
For healthy PBMCs, cells were stimulated with 20 ng/mL of IFN (+/- compounds or DMSO). […] Concentration of CXCL10 was determined according to a 4-parameter logistic regression standard curve. […]
For Type I IFN signalling analysis, the human IFN I RT2 Profiler PCR Array (Qiagen, PAMM-016ZE) was performed on available RNA from healthy (n=3) and SSc (n=9) donors. […] Relative expression for each gene was determined, firstly by ∆CT calculated using the geometric mean of 4 housekeeping genes (ACTB, GAPDH, HPRT1, RPLP0), followed by 2^(-∆CT), and expressed as fold change to control, according to manufacturer’s guidance. IFN2α-induced ISGs in healthy donors were determined using a Student’s t-test (two-tail distribution and equal variances) on the triplicate fold change in 2^(-ΔCT) values between […]
(§3) R Foundation for Statistical Computing). The IFN2α inducible genes determined in healthy donors […]

[2] = tested on: ISG expression in SSc PBMCs; experiment: SSc PBMC type I IFN signaling gene expression array, unstimulated; conditions: unstimulated PBMCs from SSc patients; one value per patient (P1-P9)
Description: as §1, §2
For healthy PBMCs, cells were stimulated with 20 ng/mL of IFN (+/- compounds or DMSO). For SSc PBMCs, cells were in basal conditions with no additional IFN stimulation. Cells were centrifuged at 300 g for 10 minutes. […]
RNA was extracted from cell pellets using TRIzol™ (ThermoFisher
Scientific, Waltham, MA) and processed using Quick-RNA Miniprep Kit (Zymo Research) as per the manufacturer’s instruction.
For Type I IFN signalling analysis, the human IFN I RT2 Profiler PCR Array (Qiagen, PAMM-016ZE) was performed on available RNA from healthy (n=3) and SSc (n=9) donors. RNA was converted to cDNA using RT2 First Strand Kit (Qiagen). Next, the cDNA was mixed with RT2 SYBR Green Mastermix (Qiagen, Venlo). Successful PCR performance was confirmed by assay tests for genomic DNA contamination, RNA sample quality, as well as single melt curve determination and <35 Ct for each gene, leading to validated gene expression of 67 genes. Relative expression for each gene was determined, firstly by ∆CT calculated using the geometric mean of 4 housekeeping genes (ACTB, GAPDH, HPRT1, RPLP0), followed by 2^(-∆CT), and expressed as fold change to control, according to manufacturer’s guidance. IFN2α-induced ISGs in healthy donors were determined using a Student’s t-test (two-tail distribution and equal variances) on the triplicate fold change in 2^(-ΔCT) values between […]
donors). Heatmaps were generated using the “pheatmap” function in R (v4.0.2) and RStudio (v1.3.1093) applying row scaling to standardise the expression data across samples (R core team 2020.
as §3
171-C. To account for Type I IFN signalling heterogeneity across samples, the mean 2^(-∆CT) for each […]
relative gene expression, illustrated as a fold change and visualised in log2. The Type I IFN signalling array data for the patient samples is included in Source Data Figure 6, Extended Data Fig. 9.

[3] = tested on: NF-κB pathway in THP-1 cells; experiment: THP-1 NF-κB pathway SEAP reporter, lipopolysaccharide stimulation; conditions: LPS + compound, three replicates
Description: THP-1 in vitro experiments
THP-1-DualTM cells (InvivoGen), derived from a human monocytic cell line, isolated from a patient with acute monocytic leukaemia, were cultured as per manufacturer’s guidance. Cells were seeded at 1x10^6 cells/mL in RPMI1640 media containing 10% fetal bovine serum (FBS), 1% penicillin-streptomycin (PS) (Gibco Laboratories) with DMSO (0.1%) (control) or in media containing JMS-175- […]
ng/mL) (Merck Life Science), ODN 2216 (1 µM) (Miltenyi Biotec), or Poly:IC (1 µg/mL) (InvivoGen).
Tofacitinib (Cambridge Biosciences) at 0.4 µM was used for comparison against a known JAK inhibitor.
Cells were centrifuged at 300 g for 5 minutes. Supernatant was removed and subjected to simultaneous study of the NF -κB pathway, by monitoring the activity of secreted alkaline phosphatase reporter (SEAP), and the IRF pathway, by assessing the activity o f a secreted Lucia luciferase using QUANTI - Blue ™ Solution and QUANTI -Luc™ 4 Lucia/Gaussia (InvivoGen), respectively, as per manufacturer’s instructions. Pelleted cells were used for FACS analysis using IFNα/β R1 APC-conjugated antibody or isotype control (Biotechne, FAB245A and IC002A), or unstained staining procedure with and without Zombie GreenTM (Biolegend). Samples were analysed using CytoFlex LX (Beckman) (50,000 live cells per condition). Median fluorescence intensity for APC channel gated on single cell live cells was analysed and compared as a percentage to control (no stimulation condition). […]

Cn1cc(NC(=O)c2c(Cl)cccc2Cl)c(C(=O)NC2CCN(C(=O)c3c(Cl)cccc3Cl)CC2)n1 [AP-5-145]
IFN-induced ISG expression (in words) [1]: no difference in ISG expression profile | ADAR, Type I IFN signalling array raw data [2]: 3.585 and 4.485 and 4.334 and 4.353 and 5.313 and 4.699 and 4.415 and 5.111 and 3.559 | BST2, Type I IFN signalling array raw data [2]: 3.184 and 2.458 and 3.302 and 3.672 and 2.309 and 1.595 and 4.59 and 3.685 and 1.654 | CASP1, Type I IFN signalling array raw data [2]: 1.628 and 0.9815 and 2.95 and 3.664 and 1.948 and 2.361 and 2.033 and 2.206 and 1.183 | CD86, Type I IFN signalling array raw data [2]: 4.785 and 2.783 and 4.5852 and 3.1897 and 4.314 and 3.552 and 4.0343 and 4.013 and 3.55 | CXCL10, Type I IFN signalling array raw data [2]: 2.8643 and 6.708 and 5.453 and 2.734 and 4.396 and 4.529 and 5.68 and 6.078 and 3.688 | DDX58, Type I IFN signalling array raw data [2]: 2.4595 and 2.543 and 3.026 and 3.209 and 2.763 and 1.787 and 3.543 and 4.173 and 1.175 | GBP1, Type I IFN signalling array raw data [2]: 0.1474 and 2.145 and 2.622 and 1.459 and 0.8545 and 1.754 and 2.939 and 2.1766 and -0.4621 | IFI6, Type I IFN signalling array raw data [2]: 2.465 and 2.227 and 2.936 and 2.73 and 1.772 and 0.8033 and 3.207 and 3.6638 and 1.0872 | IFI16, Type I IFN signalling array raw data [2]: 1.83 and 1.644 and 2.049 and 2.362 and 1.331 and 1.292 and 2.492 and 2.951 and 1.1658 | IFIH1, Type I IFN signalling array raw data [2]: 3.174 and 3.642 and 3.693 and 3.986 and 3.429 and 3.042 and 4.0109 and 5.193 and 2.582 | IFIT1, Type I IFN signalling array raw data [2]: 4.24 and 3.643 and 3.989 and 4.293 and 2.488 and 1.397 and 4.575 and 7.138 and 1.6699 | IFIT2, Type I IFN signalling array raw data [2]: 3.353 and 3.202 and 2.7801 and 3.719 and 2.327 and 0.07597 and 4.728 and 5.592 and 0.851 | IFIT3, Type I IFN signalling array raw data [2]: 2.463 and 3.281 and 3.064 and 3.575 and 3.043 and 1.248 and 5.135 and 5.476 and 1.263 | IFITM1, Type I IFN signalling array raw data [2]: -0.2471 and 0.1243 and 0.2716 and 1.178 and 0.8183 and 0.3168 and 1.196 and 1.705 and -0.8285 | IFITM2, Type I IFN signalling array raw data [2]: 3.999 and 3.471 and 4.22 and 5.1798 and 5.262 and 5.108 and 4.673 and 5.09 and 4.191 | IFITM3, Type I IFN signalling array raw data [2]: 3.006 and 2.32 and 3.244 and 3.786 and 1.434 and -0.1662 and 3.42 and 4.49 and -0.2026 | IRF1, Type I IFN signalling array raw data [2]: 1.06 and 1.224 and 2.232 and 2.144 and 1.15 and 2.067 and 2.585 and 1.973 and 0.5242 | IRF7, Type I IFN signalling array raw data [2]: 5.407 and 5.206 and 4.576 and 6.178 and 4.455 and 3.933 and 5.89 and 5.935 and 9.933 | IRF9, Type I IFN signalling array raw data [2]: 2.066 and 2.065 and 2.241 and 2.2692 and 1.294 and 1.106 and 2.973 and 2.809 and 0.8366 | ISG15, Type I IFN signalling array raw data [2]: 2.596 and 6.312 and 3.3545 and 3.693 and 0.9621 and 0.3667 and 4.1244 and 6.015 and 0.1079 | ISG20, Type I IFN signalling array raw data [2]: 2.432 and 2.479 and 2.547 and 3.375 and 2.843 and 3.174 and 3.393 and 3.464 and 1.322 | MX1, Type I IFN signalling array raw data [2]: 4.424 and 4.226 and 3.58 and 4.634 and 2.28 and 2.399 and 4.395 and 5.558 and 2.679 | MX2, Type I IFN signalling array raw data [2]: 4.173 and 3.658 and 2.952 and 4.357 and 2.358 and 2.074 and 3.745 and 4.851 and 2.355 | MYD88, Type I IFN signalling array raw data [2]: 3.563 and 2.295 and 2.992 and 3.3169 and 2.321 and 1.993 and 3.136 and 2.869 and 2.18 | NMI, Type I IFN signalling array raw data [2]: 1.73 and 1.406 and 2.205 and 1.958 and 1.878 and 1.724 and 2.633 and 2.762 and 1.099 | OAS1, Type I IFN signalling array raw data [2]: 3.537 and 3.8519 and 3.958 and 4.26 and 2.489 and 2.393 and 5.01 and 4.925 and 2.848 | OAS2, Type I IFN signalling array raw data [2]: 3.256 and 3.665 and 3.696 and 4.93 and 3.216 and 2.622 and 4.725 and 4.971 and 2.257 | PML, Type I IFN signalling array raw data [2]: 3.769 and 4.451 and 4.457 and 4.682 and 3.169 and 3.581 and 5.048 and 5.21 and 2.632 | SOCS1, Type I IFN signalling array raw data [2]: 4.276 and 3.145 and 2.943 and 3.915 and 3.6717 and 2.288 and 4.381 and 4.149 and 1.789 | STAT1, Type I IFN signalling array raw data [2]: -1.171 and 0.5507 and 0.704 and -0.4526 and -0.2783 and 1.689 and 0.5533 and 0.2423 and -1.283 | STAT2, Type I IFN signalling array raw data [2]: 3.543 and 4.373 and 3.597 and 3.344 and 3.627 and 3.236 and 4.148 and 3.986 and 2.129 | STAT3, Type I IFN signalling array raw data [2]: 1.898 and 1.636 and 1.633 and 5.446 and 2.412 and 1.5196 and 2.3996 and 2.61 and 1.33 | TAP1, Type I IFN signalling array raw data [2]: 1.436 and 1.649 and 2.5757 and 2.2546 and 2.075 and 1.836 and 3.734 and 2.309 and 0.9557 | TNFSF10, Type I IFN signalling array raw data [2]: 2.318 and 2.989 and 3.028 and 3.374 and 2.092 and 2.434 and 3.558 and 3.768 and 2.177 | NF-κB SEAP reporter signal [3]: 1.142 and 1.08 and 1.107

— article PMC7617869, “Molecular glues that inhibit deubiquitylase activity and inflammatory signaling” (Nature Structural & Molecular Biology, 2025)
